Measurements from ChEMBL document CHEMBL1201862, “PubChem BioAssay data set” (2004).
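Assay format: 96-well plates, 48-hour exposure. GI50 marks 50% less growth.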 The source made the active and inactive calls. Rule as the data show it: active = GI50 up to about 1.1 µM and inactive = higher.

How the values were obtained:
Test in all cases: DTP human tumour cell line panel, 48 h
[1] = test system: A549
[2] = test system: ACHN
[3] = test system: CCRF-CEM
[4] = test system: HCT-116
[5] = test system: HCT-15
[6] = test system: HOP-92
[7] = test system: LOX IMVI
[8] = test system: MDA-N
[9] = test system: NCI-H226
[10] = test system: NCI/ADR-RES
[11] = test system: RPMI-8226
[12] = test system: SF-268
[13] = test system: SF-295
[14] = test system: SK-MEL-2
[15] = test system: SW-620
[16] = test system: T47D
[17] = test system: UACC-257
[18] = test system: UACC-62
[19] = test system: HCC 2998

SMILES	GI50 [1]	GI50 [2]	GI50 [3]	GI50 [4]	GI50 [5] [µM]	GI50 [6]	GI50 [7]	GI50 [8]	GI50 [9]	GI50 [10]	GI50 [11]	GI50 [12]	GI50 [13]	GI50 [14]	GI50 [15]	GI50 [16]	GI50 [17]	GI50 [18]	GI50 [19]
CSc1ncnc2c1ncn2CC(=O)C1CCC2C3CCC4=CC(=O)CCC4(C)C3CCC12C (centres undefined)	6.81 µM (inactive)	4.97 µM (inactive)	0.729 µM (active)	4.15 µM (inactive)	4.56	14.8 µM (inactive)	4.38 µM (inactive)	3.07 µM (inactive)	5.85 µM (inactive)	2.5 µM (inactive)	1.45 µM (inactive)	14.6 µM (inactive)	3.21 µM (inactive)	2.98 µM (inactive)	9.16 µM (inactive)	1.91 µM (inactive)	2.05 µM (inactive)	3.21 µM (inactive)	–
O=C(NNC(=S)Nc1ccccc1)c1cc(-c2ccccc2)nc2ccccc12	16.7 µM (inactive)	27.5 µM (inactive)	12.4 µM (inactive)	14.4 µM (inactive)	13.9	15.6 µM (inactive)	–	18.2 µM (inactive)	23.6 µM (inactive)	17.4 µM (inactive)	6.56 µM (inactive)	22.9 µM (inactive)	13.1 µM (inactive)	11.1 µM (inactive)	18.7 µM (inactive)	7.4 µM (inactive)	19.1 µM (inactive)	15.6 µM (inactive)	15.5 µM (inactive)
CC#CC(O)(C(=O)OC1CCC2CCC1N2C)C1CCCC1 (centres undefined)	> 100 µM (inactive)	> 10 µM (inactive)	–	> 100 µM (inactive)	> 100	–	> 100 µM (inactive)	> 100 µM (inactive)	> 100 µM (inactive)	> 10 µM (inactive)	> 100 µM (inactive)	> 100 µM (inactive)	> 100 µM (inactive)	–	> 100 µM (inactive)	> 100 µM (inactive)	> 100 µM (inactive)	> 100 µM (inactive)	> 100 µM (inactive)
O=C1CSC2=NCC3(NN12)c1ccccc1-c1ccccc13	> 10 µM (inactive)	> 10 µM (inactive)	> 10 µM (inactive)	> 10 µM (inactive)	> 10	> 10 µM (inactive)	> 10 µM (inactive)	> 10 µM (inactive)	> 10 µM (inactive)	> 10 µM (inactive)	> 10 µM (inactive)	> 10 µM (inactive)	> 10 µM (inactive)	–	> 10 µM (inactive)	> 10 µM (inactive)	> 10 µM (inactive)	> 10 µM (inactive)	> 10 µM (inactive)
Oc1ccc(Br)cc1/C=N/C1CCCCC1	> 100 µM (inactive)	65.5 µM (inactive)	5.37 µM (inactive)	12.4 µM (inactive)	5.56	72.1 µM (inactive)	13.3 µM (inactive)	34.8 µM (inactive)	–	38.7 µM (inactive)	28.1 µM (inactive)	10.6 µM (inactive)	41.8 µM (inactive)	25.1 µM (inactive)	24.8 µM (inactive)	4.12 µM (inactive)	47.2 µM (inactive)	32 µM (inactive)	25.5 µM (inactive)
COC(=O)C1=CC(=O)OC1(OO)c1ccccc1 (centres undefined)	> 100 µM (inactive)	> 100 µM (inactive)	18.7 µM (inactive)	88.3 µM (inactive)	54	30.8 µM (inactive)	94.8 µM (inactive)	> 100 µM (inactive)	> 100 µM (inactive)	> 100 µM (inactive)	–	–	> 100 µM (inactive)	> 100 µM (inactive)	68.1 µM (inactive)	> 100 µM (inactive)	> 100 µM (inactive)	> 100 µM (inactive)	> 100 µM (inactive)
COC(c1ccc(C(C)(C)C)cc1)(c1ccc(C(C)(C)C)cc1)c1ccc(C(C)(C)C)cc1	> 100 µM (inactive)	> 100 µM (inactive)	> 100 µM (inactive)	> 100 µM (inactive)	> 100	–	> 100 µM (inactive)	> 100 µM (inactive)	> 100 µM (inactive)	> 100 µM (inactive)	> 100 µM (inactive)	> 100 µM (inactive)	> 100 µM (inactive)	> 100 µM (inactive)	> 100 µM (inactive)	> 100 µM (inactive)	–	> 100 µM (inactive)	> 100 µM (inactive)
COc1ccc(-c2cc(-c3ccccc3)[nH]c(=S)c2C#N)cc1	18.8 µM (inactive)	33 µM (inactive)	17.3 µM (inactive)	34.9 µM (inactive)	34.7	44.3 µM (inactive)	20.7 µM (inactive)	31.1 µM (inactive)	31.4 µM (inactive)	39.1 µM (inactive)	20.7 µM (inactive)	38.2 µM (inactive)	27.4 µM (inactive)	–	33 µM (inactive)	8.63 µM (inactive)	–	19 µM (inactive)	28.2 µM (inactive)
COc1ccc(-c2nc(N)c(C#N)c3c2CCS(=O)(=O)c2ccc(C)cc2-3)cc1OC	26.4 µM (inactive)	48.4 µM (inactive)	–	31.5 µM (inactive)	16.1	38.5 µM (inactive)	48.3 µM (inactive)	11.7 µM (inactive)	77.1 µM (inactive)	43.7 µM (inactive)	–	51.2 µM (inactive)	–	16.2 µM (inactive)	34.9 µM (inactive)	39.1 µM (inactive)	22.6 µM (inactive)	15.2 µM (inactive)	27.6 µM (inactive)
CCN(CC)C(=S)SS(=O)(=O)c1ccc(Cl)cc1	0.484 µM (active)	33.2 µM (inactive)	–	30.3 µM (inactive)	31.3	16.9 µM (inactive)	15.4 µM (inactive)	36.1 µM (inactive)	62.7 µM (inactive)	35.4 µM (inactive)	15 µM (inactive)	53 µM (inactive)	38.7 µM (inactive)	65.6 µM (inactive)	17.1 µM (inactive)	46.2 µM (inactive)	24.2 µM (inactive)	20.5 µM (inactive)	> 100 µM (inactive)
CN(C)CCCn1c2ccccc2c2cnccc21	33.6 µM (inactive)	33.8 µM (inactive)	45.7 µM (inactive)	19.7 µM (inactive)	43.7	94.6 µM (inactive)	24.2 µM (inactive)	25.2 µM (inactive)	24.1 µM (inactive)	36.1 µM (inactive)	26.7 µM (inactive)	50.7 µM (inactive)	46.5 µM (inactive)	45.5 µM (inactive)	26.4 µM (inactive)	70.8 µM (inactive)	18.7 µM (inactive)	40.4 µM (inactive)	–
O=C1c2[nH]c3ccc(Br)cc3c2CCN1Cc1ccc(Cl)cc1	12.7 µM (inactive)	10.8 µM (inactive)	12.3 µM (inactive)	10.4 µM (inactive)	3.99	16.2 µM (inactive)	12.5 µM (inactive)	14.7 µM (inactive)	–	17.2 µM (inactive)	> 10 µM (inactive)	12.7 µM (inactive)	12.8 µM (inactive)	19.1 µM (inactive)	16.5 µM (inactive)	13.4 µM (inactive)	15.3 µM (inactive)	14.1 µM (inactive)	14.5 µM (inactive)
CN(C)C(=S)N/N=C(\C(=N/NC(=S)N(C)C)c1ccccn1)c1ccccn1	6.55 µM (inactive)	6.61 µM (inactive)	–	5.78 µM (inactive)	6.81	9.35 µM (inactive)	11.8 µM (inactive)	11.2 µM (inactive)	12.6 µM (inactive)	20.7 µM (inactive)	5.3 µM (inactive)	6.14 µM (inactive)	11.6 µM (inactive)	10.7 µM (inactive)	6.24 µM (inactive)	3.21 µM (inactive)	10.7 µM (inactive)	6.3 µM (inactive)	7.55 µM (inactive)
Cc1ccc(O)c(-c2cc(-c3cccc(Cl)c3)c(C#N)c(N)n2)c1	18.9 µM (inactive)	17.9 µM (inactive)	24.4 µM (inactive)	16.2 µM (inactive)	12.2	13.1 µM (inactive)	16.7 µM (inactive)	14.5 µM (inactive)	18.7 µM (inactive)	24.7 µM (inactive)	19.6 µM (inactive)	18.6 µM (inactive)	14.8 µM (inactive)	13.2 µM (inactive)	17.2 µM (inactive)	29.9 µM (inactive)	–	16.1 µM (inactive)	–
CC(C)CCCC(C)[C@H]1CC[C@H]2n3c(nc4ccccc43)CCC[C@]12C (some centres undefined)	20.1 µM (inactive)	–	18.3 µM (inactive)	12.9 µM (inactive)	15	17.7 µM (inactive)	32.7 µM (inactive)	16.2 µM (inactive)	15.6 µM (inactive)	18.2 µM (inactive)	10.8 µM (inactive)	20.3 µM (inactive)	16.8 µM (inactive)	17.2 µM (inactive)	17.7 µM (inactive)	15.4 µM (inactive)	20 µM (inactive)	16.2 µM (inactive)	–
C=CC(OC(C)=O)c1ccc(OC(C)=O)cc1 (centres undefined)	19.8 µM (inactive)	2.54 µM (inactive)	–	7.05 µM (inactive)	8.24	8.47 µM (inactive)	2.88 µM (inactive)	4.95 µM (inactive)	15.7 µM (inactive)	7.01 µM (inactive)	2.25 µM (inactive)	4.92 µM (inactive)	7.62 µM (inactive)	4.97 µM (inactive)	2.21 µM (inactive)	2.72 µM (inactive)	6.04 µM (inactive)	14.8 µM (inactive)	7.01 µM (inactive)
